{"source": "patent US20220184080A1", "about": "(Aerovate Therapeutics, Inc., priority 2019, published 2022)", "data": [{"test": "thermal stability of imatinib salt forms", "assay_type": "physicochemical", "settings": "method not described", "values": [{"compound": "O=S(=O)(O)CCO", "note": "[isethionate]", "thermal stability": "suitable thermal stability"}, {"compound": "malate", "thermal stability": "suitable thermal stability"}, {"compound": "malonate", "thermal stability": "suitable thermal stability"}, {"compound": "tartrate", "thermal stability": "suitable thermal stability"}]}]}
